Source: the NIST ThermoML archive (doi:10.1016/j.jct.2009.07.002)
± gives the expanded uncertainty stated by the source.

Experiment: isobaric coefficient of expansion
Conditions: Liquid, DSC with Pressure Shift

CCCCCO [pentan-1-ol]
isobaric coefficient of expansion
Conditions	278.15 K	288.15 K	298.15 K	308.15 K	318.15 K	328.15 K	338.15 K	348.15 K
5000 kPa	0.000863 ± 3.7e-05 1/K	0.000873 ± 3.7e-05 1/K	0.000889 ± 3.8e-05 1/K	0.000908 ± 3.9e-05 1/K	0.000934 ± 4e-05 1/K	0.00096 ± 4.1e-05 1/K	0.001 ± 4.3e-05 1/K	0.00105 ± 4.4e-05 1/K
10000 kPa	0.000833 ± 3.5e-05 1/K	0.00085 ± 3.6e-05 1/K	0.000864 ± 3.7e-05 1/K	0.000883 ± 3.7e-05 1/K	0.000904 ± 3.8e-05 1/K	0.00093 ± 3.9e-05 1/K	0.000961 ± 4.1e-05 1/K	0.001 ± 4.2e-05 1/K
15000 kPa	0.000826 ± 3.5e-05 1/K	0.000831 ± 3.5e-05 1/K	0.000847 ± 3.6e-05 1/K	0.00086 ± 3.7e-05 1/K	0.000879 ± 3.7e-05 1/K	0.000899 ± 3.8e-05 1/K	0.000927 ± 3.9e-05 1/K	0.00096 ± 4.1e-05 1/K
20000 kPa	0.000805 ± 3.4e-05 1/K	0.000813 ± 3.4e-05 1/K	0.000825 ± 3.5e-05 1/K	0.000838 ± 3.6e-05 1/K	0.000853 ± 3.6e-05 1/K	0.000873 ± 3.7e-05 1/K	0.000899 ± 3.8e-05 1/K	0.000927 ± 3.9e-05 1/K
25000 kPa	0.000788 ± 3.3e-05 1/K	0.000795 ± 3.4e-05 1/K	0.000805 ± 3.4e-05 1/K	0.000816 ± 3.5e-05 1/K	0.00083 ± 3.5e-05 1/K	0.000849 ± 3.6e-05 1/K	0.000874 ± 3.7e-05 1/K	0.000899 ± 3.8e-05 1/K
30000 kPa	0.000778 ± 3.3e-05 1/K	0.000779 ± 3.3e-05 1/K	0.000788 ± 3.3e-05 1/K	0.000796 ± 3.4e-05 1/K	0.000814 ± 3.5e-05 1/K	0.000827 ± 3.5e-05 1/K	0.000847 ± 3.6e-05 1/K	0.000871 ± 3.7e-05 1/K
35000 kPa	0.000752 ± 3.2e-05 1/K	0.000761 ± 3.2e-05 1/K	0.000772 ± 3.3e-05 1/K	0.00078 ± 3.3e-05 1/K	0.000794 ± 3.4e-05 1/K	0.000809 ± 3.4e-05 1/K	0.000828 ± 3.5e-05 1/K	0.000849 ± 3.6e-05 1/K
40000 kPa	0.000742 ± 3.1e-05 1/K	0.000747 ± 3.2e-05 1/K	0.000757 ± 3.2e-05 1/K	0.000763 ± 3.2e-05 1/K	0.000776 ± 3.3e-05 1/K	0.00079 ± 3.4e-05 1/K	0.000806 ± 3.4e-05 1/K	0.000826 ± 3.5e-05 1/K
45000 kPa	0.000735 ± 3.1e-05 1/K	0.000735 ± 3.1e-05 1/K	0.000741 ± 3.1e-05 1/K	0.000748 ± 3.2e-05 1/K	0.000759 ± 3.2e-05 1/K	0.000772 ± 3.3e-05 1/K	0.000786 ± 3.3e-05 1/K	0.000807 ± 3.4e-05 1/K
50000 kPa	0.000719 ± 3e-05 1/K	0.000724 ± 3.1e-05 1/K	0.000729 ± 3.1e-05 1/K	0.000734 ± 3.1e-05 1/K	0.000745 ± 3.2e-05 1/K	0.000755 ± 3.2e-05 1/K	0.000773 ± 3.3e-05 1/K	0.000787 ± 3.3e-05 1/K
55000 kPa	0.000714 ± 3e-05 1/K	0.000713 ± 3e-05 1/K	0.000717 ± 3e-05 1/K	0.000721 ± 3.1e-05 1/K	0.000731 ± 3.1e-05 1/K	0.00074 ± 3.1e-05 1/K	0.000755 ± 3.2e-05 1/K	0.000768 ± 3.3e-05 1/K

CCCC(C)O (centres undefined) [pentan-2-ol]
isobaric coefficient of expansion
Conditions	278.15 K	288.15 K	298.15 K	308.15 K	318.15 K	328.15 K	338.15 K	348.15 K
5000 kPa	0.000883 ± 3.7e-05 1/K	0.000922 ± 3.9e-05 1/K	0.000961 ± 4.1e-05 1/K	0.00101 ± 4.3e-05 1/K	0.00106 ± 4.5e-05 1/K	0.0011 ± 4.7e-05 1/K	0.00114 ± 4.9e-05 1/K	0.00119 ± 5e-05 1/K
10000 kPa	0.000858 ± 3.6e-05 1/K	0.000896 ± 3.8e-05 1/K	0.000935 ± 4e-05 1/K	0.000983 ± 4.2e-05 1/K	0.00103 ± 4.4e-05 1/K	0.00107 ± 4.5e-05 1/K	0.00111 ± 4.7e-05 1/K	0.00115 ± 4.9e-05 1/K
15000 kPa	0.00084 ± 3.6e-05 1/K	0.00088 ± 3.7e-05 1/K	0.000914 ± 3.9e-05 1/K	0.000956 ± 4.1e-05 1/K	0.001 ± 4.2e-05 1/K	0.00103 ± 4.4e-05 1/K	0.00107 ± 4.6e-05 1/K	0.00111 ± 4.7e-05 1/K
20000 kPa	0.000827 ± 3.5e-05 1/K	0.000857 ± 3.6e-05 1/K	0.00089 ± 3.8e-05 1/K	0.000929 ± 3.9e-05 1/K	0.000971 ± 4.1e-05 1/K	0.00101 ± 4.3e-05 1/K	0.00105 ± 4.4e-05 1/K	0.00108 ± 4.6e-05 1/K
25000 kPa	0.000801 ± 3.4e-05 1/K	0.000842 ± 3.6e-05 1/K	0.000872 ± 3.7e-05 1/K	0.000909 ± 3.9e-05 1/K	0.000946 ± 4e-05 1/K	0.000983 ± 4.2e-05 1/K	0.00102 ± 4.3e-05 1/K	0.00105 ± 4.4e-05 1/K
30000 kPa	0.000789 ± 3.3e-05 1/K	0.000823 ± 3.5e-05 1/K	0.000851 ± 3.6e-05 1/K	0.000889 ± 3.8e-05 1/K	0.000923 ± 3.9e-05 1/K	0.000957 ± 4.1e-05 1/K	0.000991 ± 4.2e-05 1/K	0.00102 ± 4.3e-05 1/K
35000 kPa	0.000773 ± 3.3e-05 1/K	0.000805 ± 3.4e-05 1/K	0.000834 ± 3.5e-05 1/K	0.000868 ± 3.7e-05 1/K	0.000902 ± 3.8e-05 1/K	0.000933 ± 4e-05 1/K	0.000967 ± 4.1e-05 1/K	0.000995 ± 4.2e-05 1/K
40000 kPa	0.000756 ± 3.2e-05 1/K	0.000788 ± 3.3e-05 1/K	0.00081 ± 3.4e-05 1/K	0.00085 ± 3.6e-05 1/K	0.000879 ± 3.7e-05 1/K	0.000914 ± 3.9e-05 1/K	0.000941 ± 4e-05 1/K	0.00097 ± 4.1e-05 1/K
45000 kPa	0.000745 ± 3.2e-05 1/K	0.000775 ± 3.3e-05 1/K	0.000799 ± 3.4e-05 1/K	0.00083 ± 3.5e-05 1/K	0.00086 ± 3.7e-05 1/K	0.000889 ± 3.8e-05 1/K	0.00092 ± 3.9e-05 1/K	0.000946 ± 4e-05 1/K
50000 kPa	0.00073 ± 3.1e-05 1/K	0.000758 ± 3.2e-05 1/K	0.000784 ± 3.3e-05 1/K	0.000814 ± 3.5e-05 1/K	0.000841 ± 3.6e-05 1/K	0.000872 ± 3.7e-05 1/K	0.000899 ± 3.8e-05 1/K	0.000923 ± 3.9e-05 1/K
55000 kPa	0.000719 ± 3.1e-05 1/K	0.000745 ± 3.2e-05 1/K	0.000766 ± 3.3e-05 1/K	0.000793 ± 3.4e-05 1/K	0.000819 ± 3.5e-05 1/K	0.000844 ± 3.6e-05 1/K	0.000866 ± 3.7e-05 1/K	0.000888 ± 3.8e-05 1/K

CCCO [propan-1-ol]
isobaric coefficient of expansion
Conditions	278.15 K	288.15 K	298.15 K	308.15 K	318.15 K	328.15 K	338.15 K	348.15 K
5000 kPa	0.000927 ± 3.9e-05 1/K	0.000947 ± 4e-05 1/K	0.000967 ± 4.1e-05 1/K	0.001 ± 4.3e-05 1/K	0.00104 ± 4.4e-05 1/K	0.00107 ± 4.6e-05 1/K	0.00111 ± 4.7e-05 1/K	0.00116 ± 4.9e-05 1/K
10000 kPa	0.000901 ± 3.8e-05 1/K	0.000923 ± 3.9e-05 1/K	0.000943 ± 4e-05 1/K	0.000975 ± 4.1e-05 1/K	0.001 ± 4.3e-05 1/K	0.00104 ± 4.4e-05 1/K	0.00108 ± 4.6e-05 1/K	0.00112 ± 4.8e-05 1/K
15000 kPa	0.000883 ± 3.7e-05 1/K	0.000902 ± 3.8e-05 1/K	0.00092 ± 3.9e-05 1/K	0.000948 ± 4e-05 1/K	0.000976 ± 4.1e-05 1/K	0.00101 ± 4.3e-05 1/K	0.00104 ± 4.4e-05 1/K	0.00108 ± 4.6e-05 1/K
20000 kPa	0.000868 ± 3.7e-05 1/K	0.000884 ± 3.8e-05 1/K	0.000899 ± 3.8e-05 1/K	0.000925 ± 3.9e-05 1/K	0.000947 ± 4e-05 1/K	0.000975 ± 4.1e-05 1/K	0.00101 ± 4.3e-05 1/K	0.00105 ± 4.4e-05 1/K
25000 kPa	0.00085 ± 3.6e-05 1/K	0.000867 ± 3.7e-05 1/K	0.000877 ± 3.7e-05 1/K	0.0009 ± 3.8e-05 1/K	0.000922 ± 3.9e-05 1/K	0.00095 ± 4e-05 1/K	0.000977 ± 4.1e-05 1/K	0.00101 ± 4.3e-05 1/K
30000 kPa	0.000834 ± 3.5e-05 1/K	0.000848 ± 3.6e-05 1/K	0.000858 ± 3.6e-05 1/K	0.000882 ± 3.7e-05 1/K	0.000899 ± 3.8e-05 1/K	0.000923 ± 3.9e-05 1/K	0.000951 ± 4e-05 1/K	0.000984 ± 4.2e-05 1/K
35000 kPa	0.000818 ± 3.5e-05 1/K	0.00083 ± 3.5e-05 1/K	0.000843 ± 3.6e-05 1/K	0.000859 ± 3.6e-05 1/K	0.00088 ± 3.7e-05 1/K	0.000901 ± 3.8e-05 1/K	0.000926 ± 3.9e-05 1/K	0.000958 ± 4.1e-05 1/K
40000 kPa	0.000803 ± 3.4e-05 1/K	0.000816 ± 3.5e-05 1/K	0.000822 ± 3.5e-05 1/K	0.000844 ± 3.6e-05 1/K	0.000854 ± 3.6e-05 1/K	0.000878 ± 3.7e-05 1/K	0.000899 ± 3.8e-05 1/K	0.000927 ± 3.9e-05 1/K
45000 kPa	0.00079 ± 3.4e-05 1/K	0.000801 ± 3.4e-05 1/K	0.000811 ± 3.4e-05 1/K	0.000824 ± 3.5e-05 1/K	0.000839 ± 3.6e-05 1/K	0.000858 ± 3.6e-05 1/K	0.000881 ± 3.7e-05 1/K	0.000906 ± 3.8e-05 1/K
50000 kPa	0.000777 ± 3.3e-05 1/K	0.000786 ± 3.3e-05 1/K	0.000795 ± 3.4e-05 1/K	0.000809 ± 3.4e-05 1/K	0.000822 ± 3.5e-05 1/K	0.000838 ± 3.6e-05 1/K	0.000862 ± 3.7e-05 1/K	0.000885 ± 3.8e-05 1/K
55000 kPa	0.000767 ± 3.3e-05 1/K	0.000775 ± 3.3e-05 1/K	0.000781 ± 3.3e-05 1/K	0.000794 ± 3.4e-05 1/K	0.000806 ± 3.4e-05 1/K	0.000821 ± 3.5e-05 1/K	0.000837 ± 3.6e-05 1/K	0.000861 ± 3.7e-05 1/K
